Results published in PMC10817917, “Alkyl deoxyglycoside-polymyxin combinations against critical priority carbapenem-resistant gram-negative bacteria” (Scientific Reports, 2024).
Read-outs that look alike come from different tables or passages of the source.

Legend:
[1] = tested on: E. cloacae CQ1941; test: Broth microdilution MIC/MBC, glycosides with or without polymyxins; assay type: cell-based; settings: for MIC: Enterobacter cloacae, CQ1941
[2] = tested on: K. pneumoniae CQ1942; test: Broth microdilution MIC, glycosides with or without polymyxins; assay type: cell-based, Klebsiella pneumoniae; settings: for MIC: Klebsiella pneumoniae, CQ1942
[3] = tested on: E. coli NCTC 13846; test: Broth microdilution MIC/MBC, glycosides with or without polymyxins; assay type: cell-based, Escherichia coli; settings: strain B
[4] = tested on: K. pneumoniae CQ4921; test: as above; assay type: cell-based, Klebsiella pneumoniae; settings: for MIC: Klebsiella pneumoniae, CQ4921
[5] = tested on: A. baumannii CQ4322; test: as above; assay type: cell-based, Acinetobacter baumannii; settings: for MIC: Acinetobacter baumannii, CQ4322
[6] = tested on: K. pneumoniae CQ1947; test: Broth microdilution MIC, glycosides with or without polymyxins; assay type: cell-based, Klebsiella pneumoniae; settings: for MIC: Klebsiella pneumoniae, CQ1947
[7] = tested on: E. coli ATCC 25922; test: Broth microdilution MIC/MBC, glycosides with or without polymyxins; assay type: cell-based, Escherichia coli; settings: for MIC: Escherichia coli, ATCC25922
[8] = tested on: Bacillus anthracis (Sterne, ovine and pathogenic forms), Enterococcus faecalis and Bacillus cereus; settings: Gram-positive bacteria; cited from earlier work
[9] = tested on: P. aeruginosa CQ4924; test: Broth microdilution MIC, glycosides with or without polymyxins; assay type: cell-based, Pseudomonas aeruginosa; settings: for MIC: Pseudomonas aeruginosa, CQ4924
[10] = alone, read-out: MICA (MIC of each compound individually)
[11] = combination with the lowest FICI
[12] = compound + colistin, lowest FICI

SMILES: CCCCCCCCCCCCO[C@@H]1C[C@@H](O)[C@H](O)[C@@H](CO)O1 [Compound 4, dodecyl 2-deoxy-α-D-arabino-hexopyranoside]
- MIC of colistin in combination with the compound ([1]; Cpd conc. 0.4 μg/mL, strain D): 0.5 µg/mL
- MIC of colistin in combination with the compound ([1]; Cpd conc. 0.8 μg/mL, strain D): 0.5 µg/mL
- MIC of colistin in combination with the compound ([1]; Cpd conc. 3.125 μg/mL, strain D): 0.5 µg/mL
- MIC of colistin in combination with the compound ([1]; Cpd conc. 6.25 μg/mL, strain D): 0.5 µg/mL
- MIC of colistin in combination with the compound ([1]; Cpd conc. 12.5 μg/mL, strain D): 0.5 µg/mL
- MIC of colistin in combination with the compound ([1]; Cpd conc. […], strain D): 0.5 µg/mL
- MIC ([1]; agent alone, no adjuvant (polymyxin conc. 0), strain D, read-out: MIC): > 100 µg/mL
- MIC [1, 10]: > 100 µg/mL
- MIC of compound in combination with PMB ([1]; PMB 0.25 μg/mL, strain D): > 100 µg/mL
- MIC of compound in combination with PMB ([1]; PMB 0.5 μg/mL, strain D): ≤ 0.1 µg/mL
- MIC of compound in combination with colistin ([1]; colistin 0.25 μg/mL, strain D): > 100 µg/mL
- MIC of compound in combination with colistin ([1]; colistin 0.5 μg/mL, strain D): ≤ 0.1 µg/mL
- MICA(A + B) (MIC of compound in combination with colistin) [1, 11]: 0.4 µg/mL
- MICB(A + B) (MIC of colistin in combination with compound) [1, 11]: 0.5 µg/mL
- Interpretation (of FICI) ([1]; compound + colistin): Indifferent (1.0 to 4.0 were indifferent)
- FICI [1, 12]: 1.002
- MIC of colistin in combination with the compound ([2]; Cpd conc. 0.4 μg/mL, strain E): 0.5 µg/mL
- MIC of colistin in combination with the compound ([2]; Cpd conc. 0.8 μg/mL, strain E): 0.5 µg/mL
- MIC of colistin in combination with the compound ([2]; Cpd conc. 3.125 μg/mL, strain E): 0.5 µg/mL
- MIC of colistin in combination with the compound ([2]; Cpd conc. 6.25 μg/mL, strain E): 0.5 µg/mL
- MIC of colistin in combination with the compound ([2]; Cpd conc. 12.5 μg/mL, strain E): 0.5 µg/mL
- MIC of colistin in combination with the compound ([2]; Cpd conc. […], strain E): 0.5 µg/mL
- MIC ([2]; agent alone, no adjuvant (polymyxin conc. 0), strain E, read-out: MIC): > 100 µg/mL
- MIC [2, 10]: > 100 µg/mL
- MIC of compound in combination with PMB ([2]; PMB 0.25 μg/mL, strain E): > 100 µg/mL
- MIC of compound in combination with PMB ([2]; PMB 0.5 μg/mL, strain E): 1.6 µg/mL
- MIC of compound in combination with colistin ([2]; colistin 0.25 μg/mL, strain E): > 100 µg/mL
- MIC of compound in combination with colistin ([2]; colistin 0.5 μg/mL, strain E): ≤ 0.1 µg/mL
- MICA(A + B) (MIC of compound in combination with colistin) [2, 11]: 0.4 µg/mL
- MICB(A + B) (MIC of colistin in combination with compound) [2, 11]: 0.5 µg/mL
- Interpretation (of FICI) ([2]; compound + colistin): Indifferent (1.0 to 4.0 were indifferent)
- FICI [2, 12]: 1.002
- MIC of colistin in combination with the compound ([3]; Cpd conc. 0.4 μg/mL): > 0.5 µg/mL
- MIC of colistin in combination with the compound ([3]; Cpd conc. 0.8 μg/mL): > 0.5 µg/mL
- MIC of colistin in combination with the compound ([3]; Cpd conc. 3.125 μg/mL): > 0.5 µg/mL
- MIC of colistin in combination with the compound ([3]; Cpd conc. 6.25 μg/mL): > 0.5 µg/mL
- MIC of colistin in combination with the compound ([3]; Cpd conc. 12.5 μg/mL): > 0.5 µg/mL
- MIC of colistin in combination with the compound ([3]; Cpd conc. […]): > 0.5 µg/mL
- MIC ([3]; Escherichia coli, NCTC13846, agent alone, no adjuvant (polymyxin conc. 0), read-out: MIC): > 100 µg/mL
- MIC of compound in combination with PMB ([3]; PMB 0.25 μg/mL): > 100 µg/mL
- MIC of compound in combination with PMB ([3]; PMB 0.5 μg/mL): > 100 µg/mL
- MIC of compound in combination with colistin ([3]; colistin 0.25 μg/mL): > 100 µg/mL
- MIC of compound in combination with colistin ([3]; colistin 0.5 μg/mL): > 100 µg/mL
- MIC of colistin in combination with the compound ([4]; Cpd conc. 0.4 μg/mL, strain C): 0.5 µg/mL
- MIC of colistin in combination with the compound ([4]; Cpd conc. 0.8 μg/mL, strain C): 0.5 µg/mL
- MIC of colistin in combination with the compound ([4]; Cpd conc. 3.125 μg/mL, strain C): 0.5 µg/mL
- MIC of colistin in combination with the compound ([4]; Cpd conc. 6.25 μg/mL, strain C): 0.5 µg/mL
- MIC of colistin in combination with the compound ([4]; Cpd conc. 12.5 μg/mL, strain C): 0.5 µg/mL
- MIC of colistin in combination with the compound ([4]; Cpd conc. […], strain C): 0.5 µg/mL
- MIC ([4]; agent alone, no adjuvant (polymyxin conc. 0), strain C, read-out: MIC): > 100 µg/mL
- MIC [4, 10]: > 100 µg/mL
- MIC of compound in combination with PMB ([4]; PMB 0.25 μg/mL, strain C): > 100 µg/mL
- MIC of compound in combination with PMB ([4]; PMB 0.5 μg/mL, strain C): 1.6 µg/mL
- MIC of compound in combination with colistin ([4]; colistin 0.25 μg/mL, strain C): > 100 µg/mL
- MIC of compound in combination with colistin ([4]; colistin 0.5 μg/mL, strain C): ≤ 0.1 µg/mL
- MICA(A + B) (MIC of compound in combination with colistin) [4, 11]: 0.4 µg/mL
- MICB(A + B) (MIC of colistin in combination with compound) [4, 11]: 0.5 µg/mL
- Interpretation (of FICI) ([4]; compound + colistin): Indifferent (1.0 to 4.0 were indifferent)
- FICI [4, 12]: 1.002
- MIC ([5]; agent alone, no adjuvant (polymyxin conc. 0), strain G, read-out: MIC): > 100 µg/mL
- MIC [5, 10]: > 100 µg/mL
- MIC of colistin in combination with the compound ([5]; Cpd conc. 0.4 μg/mL, strain G): 0.5 µg/mL
- MIC of colistin in combination with the compound ([5]; Cpd conc. 0.8 μg/mL, strain G): 0.5 µg/mL
- MIC of colistin in combination with the compound ([5]; Cpd conc. 3.125 μg/mL, strain G): 0.5 µg/mL
- MIC of colistin in combination with the compound ([5]; Cpd conc. 6.25 μg/mL, strain G): 0.5 µg/mL
- MIC of colistin in combination with the compound ([5]; Cpd conc. 12.5 μg/mL, strain G): 0.5 µg/mL
- MIC of colistin in combination with the compound ([5]; Cpd conc. […], strain G): 0.5 µg/mL
- MIC of compound in combination with PMB ([5]; PMB 0.25 μg/mL, strain G): > 100 µg/mL
- MIC of compound in combination with colistin ([5]; colistin 0.25 μg/mL, strain G): > 100 µg/mL
- MIC of compound in combination with colistin ([5]; colistin 0.5 μg/mL, strain G): ≤ 0.1 µg/mL
- MICA(A + B) (MIC of compound in combination with colistin) [5, 11]: 0.4 µg/mL
- MICB(A + B) (MIC of colistin in combination with compound) [5, 11]: 0.5 µg/mL
- Interpretation (of FICI) ([5]; compound + colistin): Indifferent (1.0 to 4.0 were indifferent)
- FICI [5, 12]: 1.002
- MIC of colistin in combination with the compound ([6]; Cpd conc. 0.4 μg/mL, strain F): 0.5 µg/mL
- MIC of colistin in combination with the compound ([6]; Cpd conc. 0.8 μg/mL, strain F): 0.5 µg/mL
- MIC of colistin in combination with the compound ([6]; Cpd conc. 3.125 μg/mL, strain F): 0.5 µg/mL
- MIC of colistin in combination with the compound ([6]; Cpd conc. 6.25 μg/mL, strain F): 0.5 µg/mL
- MIC of colistin in combination with the compound ([6]; Cpd conc. 12.5 μg/mL, strain F): 0.5 µg/mL
- MIC of colistin in combination with the compound ([6]; Cpd conc. […], strain F): 0.5 µg/mL
- MIC ([6]; agent alone, no adjuvant (polymyxin conc. 0), strain F, read-out: MIC): > 100 µg/mL
- MIC [6, 10]: > 100 µg/mL
- MIC of compound in combination with PMB ([6]; PMB 0.25 μg/mL, strain F): > 100 µg/mL
- MIC of compound in combination with PMB ([6]; PMB 0.5 μg/mL, strain F): > 100 µg/mL
- MIC of compound in combination with colistin ([6]; colistin 0.25 μg/mL, strain F): > 100 µg/mL
- MIC of compound in combination with colistin ([6]; colistin 0.5 μg/mL, strain F): ≤ 0.1 µg/mL
- MICA(A + B) (MIC of compound in combination with colistin) [6, 11]: 0.4 µg/mL
- MICB(A + B) (MIC of colistin in combination with compound) [6, 11]: 0.5 µg/mL
- Interpretation (of FICI) ([6]; compound + colistin): Indifferent (1.0 to 4.0 were indifferent)
- FICI [6, 12]: 1.002
- MIC of colistin in combination with the compound ([7]; Cpd conc. 0.4 μg/mL, strain A): 0.5 µg/mL
- MIC of colistin in combination with the compound ([7]; Cpd conc. 0.8 μg/mL, strain A): 0.5 µg/mL
- MIC of colistin in combination with the compound ([7]; Cpd conc. 3.125 μg/mL, strain A): 0.5 µg/mL
- MIC of colistin in combination with the compound ([7]; Cpd conc. 6.25 μg/mL, strain A): 0.5 µg/mL
- MIC of colistin in combination with the compound ([7]; Cpd conc. 12.5 μg/mL, strain A): 0.5 µg/mL
- MIC of colistin in combination with the compound ([7]; Cpd conc. […], strain A): 0.5 µg/mL
- MIC ([7]; agent alone, no adjuvant (polymyxin conc. 0), strain A, read-out: MIC): > 100 µg/mL
- MIC [7, 10]: > 100 µg/mL
- MIC of compound in combination with PMB ([7]; PMB 0.25 μg/mL, strain A): > 100 µg/mL
- MIC of compound in combination with PMB ([7]; PMB 0.5 μg/mL, strain A): ≤ 0.1 µg/mL
- MIC of compound in combination with colistin ([7]; colistin 0.5 μg/mL, strain A): ≤ 0.1 µg/mL
- MICA(A + B) (MIC of compound in combination with colistin) [7, 11]: 0.4 µg/mL
- MICB(A + B) (MIC of colistin in combination with compound) [7, 11]: 0.5 µg/mL
- Interpretation (of FICI) ([7]; compound + colistin): Indifferent (1.0 to 4.0 were indifferent)
- FICI [7, 12]: 1.002
- MIC [8]: 12 to 386 µM
- MIC of colistin in combination with the compound ([9]; Cpd conc. 0.4 μg/mL, strain H): > 0.5 µg/mL
- MIC of colistin in combination with the compound ([9]; Cpd conc. 0.8 μg/mL, strain H): > 0.5 µg/mL
- MIC of colistin in combination with the compound ([9]; Cpd conc. 3.125 μg/mL, strain H): > 0.5 µg/mL
- MIC of colistin in combination with the compound ([9]; Cpd conc. 6.25 μg/mL, strain H): > 0.5 µg/mL
- MIC of colistin in combination with the compound ([9]; Cpd conc. 12.5 μg/mL, strain H): > 0.5 µg/mL
- MIC of colistin in combination with the compound ([9]; Cpd conc. […], strain H): > 0.5 µg/mL
- MIC of compound in combination with PMB ([9]; PMB 0.25 μg/mL, strain H): > 100 µg/mL
- MIC of compound in combination with PMB ([9]; PMB 0.5 μg/mL, strain H): > 100 µg/mL
- MIC ([9]; agent alone, no adjuvant (polymyxin conc. 0), strain H, read-out: MIC): > 100 µg/mL
- MIC [9, 10]: > 100 µg/mL
- MIC of compound in combination with colistin ([9]; colistin 0.25 μg/mL, strain H): > 100 µg/mL
